Measurements published in patent US8334287B2 (Hoffmann-La Roche Inc., priority 2009, dated 2012).

Molecular target: T1, human mGlu5a receptor (Homo sapiens, UniProt P41594)
T1 construct: expressed in transfected cells; host or cells: EBNA cells (transient transfection); membranes prepared from them
Assay: mGlu5a receptor binding, displacement of [3H]MPEP
Conditions: competing radioligand [3H]MPEP; human mGlu5a receptor transiently transfected into EBNA cells; Ki=IC50/1+L/Kd
Protocol: For binding experiments, cDNA encoding human mGlu5a receptor was transiently transfected into EBNA cells using a procedure described by E.-J. Schlaeger and K. Christensen (Cytotechnology 1998, 15, 1-13). For functional assays, [Ca^2+]i measurements were performed largely as described previously (Porter et al., Br J. Pharmacol 1999, 128, 13-20) on stably expressed recombinant human mGlu 5a receptors in HEK-293 cells. The cells were dye loaded using Fluo 4-AM (purchased from Molecular Probes, 2 μM final concentration) [Ca^2+]i measurements were performed using a fluorometric imaging plate reader (FLIPR, Molecular Devices Corporation, La Jolla, Calif., USA). Antagonist evaluation was performed following a 5 minute preincubation with the test compounds followed by the addition of a submaximal addition of agonist.
The inhibition (antagonists) curves were fitted with a four parameter logistic equation giving IC50, and Hill coefficient using the iterative non linear curve fitting software Xcel fit.
The Ki values of the compounds tested are given. The Ki value is defined by the following formula: Ki=IC50/1+L/Kd in which the IC50 values are those concentrations of the compounds tested in which causes 50% inhibition of the competing radioligand ([^3H]MPEP). [L] is the concentration of radioligand used in the binding experiment and the Kd value of the radioligand is empiracally determined for each batch of membranes prepared.

T1 sequence (P41594 21-1180 isoform P41594-2 limits assumed): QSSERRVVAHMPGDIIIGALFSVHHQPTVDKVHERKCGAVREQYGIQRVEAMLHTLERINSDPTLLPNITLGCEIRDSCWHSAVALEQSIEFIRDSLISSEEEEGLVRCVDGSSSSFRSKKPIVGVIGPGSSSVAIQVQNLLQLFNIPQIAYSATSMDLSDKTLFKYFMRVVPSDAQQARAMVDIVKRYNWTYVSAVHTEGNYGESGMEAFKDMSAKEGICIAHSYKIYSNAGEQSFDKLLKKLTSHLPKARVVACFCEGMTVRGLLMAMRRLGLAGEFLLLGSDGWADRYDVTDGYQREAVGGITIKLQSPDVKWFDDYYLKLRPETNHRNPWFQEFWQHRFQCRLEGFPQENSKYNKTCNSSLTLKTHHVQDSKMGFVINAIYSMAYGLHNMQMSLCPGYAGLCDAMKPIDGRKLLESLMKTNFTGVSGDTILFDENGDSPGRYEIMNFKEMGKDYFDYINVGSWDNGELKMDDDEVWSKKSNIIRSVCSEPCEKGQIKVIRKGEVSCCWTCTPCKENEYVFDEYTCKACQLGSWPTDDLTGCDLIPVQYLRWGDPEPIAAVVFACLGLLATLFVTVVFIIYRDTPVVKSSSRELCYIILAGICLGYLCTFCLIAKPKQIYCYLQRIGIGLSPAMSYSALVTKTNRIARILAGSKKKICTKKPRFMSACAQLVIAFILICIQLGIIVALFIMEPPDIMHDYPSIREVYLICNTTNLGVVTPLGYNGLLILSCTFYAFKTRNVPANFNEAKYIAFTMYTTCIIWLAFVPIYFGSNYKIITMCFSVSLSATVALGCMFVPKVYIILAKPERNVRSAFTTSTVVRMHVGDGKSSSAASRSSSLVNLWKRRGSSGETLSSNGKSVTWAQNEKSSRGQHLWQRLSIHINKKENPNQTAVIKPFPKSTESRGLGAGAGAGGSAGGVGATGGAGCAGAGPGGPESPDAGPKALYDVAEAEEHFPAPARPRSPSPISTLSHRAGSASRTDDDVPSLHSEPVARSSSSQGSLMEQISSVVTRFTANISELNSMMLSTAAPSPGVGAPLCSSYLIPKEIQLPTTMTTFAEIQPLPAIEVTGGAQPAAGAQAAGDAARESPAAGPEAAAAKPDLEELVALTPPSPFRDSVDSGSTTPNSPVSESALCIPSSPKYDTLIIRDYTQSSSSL

| SMILES | Ki [nM] |
| --- | --- |
| Cc1nc(C#Cc2ccnc(Cl)c2)c(C)n1-c1cnn(C)c(=O)c1 [Example 43, 5-[4-(2-chloro-pyridin-4-ylethynyl)-2,5-dimethyl-imidazol-1-yl]-2-methyl-2H-pyridazin-3-one] | 306 |
| Cc1nc(C#Cc2ccnc(Cl)c2)c(C)n1-c1cc(=O)n(C)cn1 [Example 46, 6-[4-(2-chloro-pyridin-4-ylethynyl)-2,5-dimethyl-imidazol-1-yl]-3-methyl-3H-pyrimidin-4-one] | 569 |
| CNC(=O)Cn1ccc(-n2cc(C#Cc3cccc(C)c3)nc2C)cc1=O [Example 48, N-methyl-2-[4-(2-methyl-4-m-tolylethynyl-imidazol-1-yl)-2-oxo-2H-pyridin-1-yl]-acetamide] | 788 |
| Cc1cccc(C#Cc2cn(-c3ccn(CS(C)(=O)=O)c(=O)c3)c(C)n2)c1 [Example 50] | 559 |
| CCn1ncc(-n2cc(C#Cc3ccnc(Cl)c3)nc2C)cc1=O [Example 53, 5-[4-(2-chloro-pyridin-4-ylethynyl)-2-methyl-imidazol-1-yl]-2-ethyl-2H-pyridazin-3-one] | 204 |
| COCCn1ncc(-n2cc(C#Cc3ccnc(Cl)c3)nc2C)cc1=O [Example 56] | 597 |
| COCCn1ncc(-n2c(C)nc(C#Cc3ccnc(Cl)c3)c2C)cc1=O [Example 57, 5-[4-(2-Chloro-pyridin-4-ylethynyl)-2,5-dimethyl-imidazol-1-yl]-2-(2-methoxy-ethyl)-2H-pyridazin-3-one] | 808 |

The next compounds have a lower Ki than those just listed; values first:

| Ki [nM] | SMILES |
| --- | --- |
| 131 | COCCn1ncc(-n2cc(C#Cc3cccc(C)c3)nc2C)cc1=O [Example 54, 2-(2-methoxy-ethyl)-5-(2-methyl-4-m-tolylethynyl-imidazol-1-yl)-2H-pyridazin-3-one] |
| 93 | COCCn1ncc(-n2cc(C#Cc3cccc(Cl)c3)nc2C)cc1=O [Example 55, 5-[4-(3-Chloro-phenylethynyl)-2-methyl-imidazol-1-yl]-2-(2-methoxy-ethyl)-2H-pyridazin-3-one] |
| 74 | Cc1cccc(C#Cc2nc(C)n(-c3cc(=O)n(C)cn3)c2C)c1 [Example 45, 6-(2,5-dimethyl-4-m-tolylethynyl-imidazol-1-yl)-3-methyl-3H-pyrimidin-4-one] |
| 71 | Cc1cccc(C#Cc2nc(C)n(-c3cnn(C)c(=O)c3)c2C)c1 [Example 44, 5-(2,5-dimethyl-4-m-tolylethynyl-imidazol-1-yl)-2-methyl-2H-pyridazin-3-one] |
| 53 | CCn1ncc(-n2cc(C#Cc3cccc(C)c3)nc2C)cc1=O [Example 51, 2-ethyl-5-(2-methyl-4-m-tolylethynyl-imidazol-1-yl)-2H-pyridazin-3-one] |
| 37 | CCn1ncc(-n2cc(C#Cc3cccc(Cl)c3)nc2C)cc1=O [Example 52, 5-[4-(3-Chloro-phenylethynyl)-2-methyl-imidazol-1-yl]-2-ethyl-2H-pyridazin-3-one] |
